Active and inactive are the calls of the source.
Tests used:
[1] = biological target: Nonstructural protein 1 (Influenza A virus, UniProt Q194T2); assay type: functional, Influenza A virus (A/California/07/2009(H1N1))
[2] = biological target: Albumin (Bos taurus, UniProt P02769); experiment: Counterscreen for inhibitors of T-cell receptor (TCR)-CD3 interaction: Fluorescence-based biochemical high throughput dose response assay to identify inhibitors of T-cell receptor (TCR)-CD3 interaction using a TAMRA-labeled BSA probe.; assay type: functional
[3] = biological target: T1, Beta-lactamase (Pseudomonas aeruginosa, UniProt Q79MP6); experiment: […] counterscreen for selective VIM-2 inhibitors: dose response biochemical high throughput screening assay to identify inhibitors of IMP-1 metallo-beta-lactamase.
[4] = biological target: T1, Beta-lactamase; experiment: IMP-1 metallo-beta-lactamase inhibitors, dose response, selectivity assay for VIM-2 inhibitor project, biochemical, epi-absorbance (AID 1920)
[5] = biological target: Beta-lactamase (Salmonella choleraesuis (strain SC-B67), UniProt Q5J463); experiment: Epi-absorbance-based counterscreen for selective VIM-2 inhibitors: dose response biochemical high throughput screening assay to identify inhibitors of TEM-1 serine-beta-lactamase.
[6] = biological target: Dual specificity tyrosine-phosphorylation-regulated kinase 1A (Rattus norvegicus, UniProt Q63470); assay type: biochemical, Homo sapiens
[7] = biological target: T2, Caspase-3 (Homo sapiens, UniProt P42574); assay type: functional
T2 sequence (P42574 whole entry): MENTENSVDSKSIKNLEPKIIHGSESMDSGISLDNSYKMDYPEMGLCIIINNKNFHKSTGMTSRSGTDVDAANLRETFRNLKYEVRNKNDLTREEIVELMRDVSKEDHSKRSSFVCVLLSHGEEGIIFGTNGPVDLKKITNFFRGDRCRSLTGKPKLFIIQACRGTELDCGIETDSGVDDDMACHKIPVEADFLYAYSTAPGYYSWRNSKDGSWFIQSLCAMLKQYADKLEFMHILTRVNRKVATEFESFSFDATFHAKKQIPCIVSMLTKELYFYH

[8] = biological target: Botulinum neurotoxin type F (Clostridium botulinum, UniProt P30996); experiment: High-throughput multiplex microsphere dose response for inhibitors of toxin protease, specifically Botulinum neurotoxin light chain F protease, compounds from Cherry Pick 02.; assay type: functional; settings: read-out: EC50_MICROM
[9] = biological target: T3, Sentrin-specific protease 7 (Homo sapiens, UniProt Q9BQF6); assay type: functional;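 further: Luminescence-based dose-response confirmation of ultra-high-throughput screening hits, measuring inhibition of SENP7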
T3 sequence (Q9BQF6 whole entry): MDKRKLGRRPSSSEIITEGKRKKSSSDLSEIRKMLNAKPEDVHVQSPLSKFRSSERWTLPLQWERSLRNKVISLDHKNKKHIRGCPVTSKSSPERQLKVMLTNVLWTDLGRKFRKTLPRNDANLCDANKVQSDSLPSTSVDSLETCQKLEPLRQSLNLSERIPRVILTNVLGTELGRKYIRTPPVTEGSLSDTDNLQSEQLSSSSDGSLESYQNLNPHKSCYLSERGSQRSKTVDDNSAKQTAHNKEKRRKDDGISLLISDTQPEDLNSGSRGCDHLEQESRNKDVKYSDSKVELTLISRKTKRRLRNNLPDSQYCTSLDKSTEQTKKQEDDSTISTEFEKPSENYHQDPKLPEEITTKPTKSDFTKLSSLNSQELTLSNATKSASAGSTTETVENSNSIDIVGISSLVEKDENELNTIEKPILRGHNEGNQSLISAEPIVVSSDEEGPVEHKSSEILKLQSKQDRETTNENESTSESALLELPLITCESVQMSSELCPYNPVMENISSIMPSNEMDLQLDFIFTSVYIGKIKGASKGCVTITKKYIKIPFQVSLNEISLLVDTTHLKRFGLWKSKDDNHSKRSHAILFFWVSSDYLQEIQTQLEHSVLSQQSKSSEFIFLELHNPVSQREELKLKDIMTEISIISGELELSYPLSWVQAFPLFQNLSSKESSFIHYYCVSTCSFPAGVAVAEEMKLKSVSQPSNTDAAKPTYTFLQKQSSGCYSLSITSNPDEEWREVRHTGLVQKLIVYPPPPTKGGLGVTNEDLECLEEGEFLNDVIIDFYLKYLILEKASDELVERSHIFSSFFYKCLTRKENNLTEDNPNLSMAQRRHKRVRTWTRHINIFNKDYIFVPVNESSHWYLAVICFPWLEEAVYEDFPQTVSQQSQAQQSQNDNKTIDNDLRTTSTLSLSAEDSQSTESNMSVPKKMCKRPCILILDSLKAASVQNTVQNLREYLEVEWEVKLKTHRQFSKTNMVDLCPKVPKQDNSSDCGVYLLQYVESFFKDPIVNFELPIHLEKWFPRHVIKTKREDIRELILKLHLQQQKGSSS

[10] = biological target: T4, Sentrin-specific protease 8 (Homo sapiens, UniProt Q96LD8); assay type: functional
T4 sequence (Q96LD8 whole entry): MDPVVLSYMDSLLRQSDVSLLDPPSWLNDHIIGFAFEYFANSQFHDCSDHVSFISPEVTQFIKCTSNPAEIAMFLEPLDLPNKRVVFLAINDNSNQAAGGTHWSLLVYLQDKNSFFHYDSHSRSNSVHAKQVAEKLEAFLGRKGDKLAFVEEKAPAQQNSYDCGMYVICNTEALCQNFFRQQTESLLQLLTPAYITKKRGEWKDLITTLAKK

[11] = biological target: T5, Sentrin-specific protease 6 (Homo sapiens, UniProt Q9GZR1); assay type: functional;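 further: Luminescence-based dose-response confirmatory assay of SENP6 inhibition, following up an ultra-high-throughput screen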
T5 sequence (Q9GZR1 whole entry): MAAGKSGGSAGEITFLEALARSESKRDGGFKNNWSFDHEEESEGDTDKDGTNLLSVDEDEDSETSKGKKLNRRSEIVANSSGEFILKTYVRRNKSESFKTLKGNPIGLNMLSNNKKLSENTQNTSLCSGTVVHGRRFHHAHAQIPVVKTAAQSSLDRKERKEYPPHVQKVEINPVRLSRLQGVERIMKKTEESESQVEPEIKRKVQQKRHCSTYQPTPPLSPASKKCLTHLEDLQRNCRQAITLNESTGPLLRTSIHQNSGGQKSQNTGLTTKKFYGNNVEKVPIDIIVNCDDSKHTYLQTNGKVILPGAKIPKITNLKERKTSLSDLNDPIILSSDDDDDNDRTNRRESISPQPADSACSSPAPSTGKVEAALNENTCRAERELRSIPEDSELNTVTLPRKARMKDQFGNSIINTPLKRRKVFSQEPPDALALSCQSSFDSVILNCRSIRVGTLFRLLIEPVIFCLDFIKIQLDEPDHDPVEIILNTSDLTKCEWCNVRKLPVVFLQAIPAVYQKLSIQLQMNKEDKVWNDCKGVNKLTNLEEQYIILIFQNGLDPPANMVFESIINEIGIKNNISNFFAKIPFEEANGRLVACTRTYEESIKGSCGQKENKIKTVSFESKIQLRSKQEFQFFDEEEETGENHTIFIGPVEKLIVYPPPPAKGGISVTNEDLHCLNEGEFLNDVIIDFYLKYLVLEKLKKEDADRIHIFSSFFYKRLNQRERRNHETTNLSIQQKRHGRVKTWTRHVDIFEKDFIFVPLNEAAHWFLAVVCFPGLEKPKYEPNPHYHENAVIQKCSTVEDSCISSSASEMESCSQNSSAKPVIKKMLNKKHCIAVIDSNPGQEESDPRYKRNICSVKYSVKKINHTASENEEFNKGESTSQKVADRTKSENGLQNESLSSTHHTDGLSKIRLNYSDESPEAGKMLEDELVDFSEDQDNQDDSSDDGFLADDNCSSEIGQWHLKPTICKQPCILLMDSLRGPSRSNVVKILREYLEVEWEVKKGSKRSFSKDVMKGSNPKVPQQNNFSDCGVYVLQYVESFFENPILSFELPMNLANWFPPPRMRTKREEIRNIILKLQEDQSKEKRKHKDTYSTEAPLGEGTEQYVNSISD

[12] = L. donovani amastigote growth inhibition, dose response, axenic amastigotes, plate reader, cherry pick (AID 651891); assay type: functional, cell-based; settings: Leishmania donovani
[13] = Inhibition of Plasmodium falciparum NF54 Measured in Cell-Based System Using Plate Reader - 2138-11_Inhibitor_Dose_CherryPick_Activity.; assay type: functional
[14] = cytotoxicity in L-6 rat myocytes, dose response, cytotoxicity control, cell-based, plate reader, cherry-pick (AID 651896); assay type: functional
[15] = intracellular Trypanosoma cruzi inhibitors in host cells – cell-based, plate reader, cherry-pick samples, set 3, dose response (AID 651818); assay type: functional;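 further: compounds incubated with infected cells for about four days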
[16] = T. cruzi intracellular amastigote growth inhibition, dose response, imaging, CA-I/72 strain, bovine embryo skeletal muscle, dry powder (AID 651885); assay type: functional, cell-based
[17] = NIH/3T3 fibroblast cytotoxicity, dose response, cytotoxicity control for T. cruzi growth inhibitor project, cell-based, cherry-pick samples, set 2 (AID 651817); assay type: functional; settings: NIH3T3
[18] = T. b. rhodesiense proliferation inhibition, dose response, STIB900 strain, plate reader, cherry pick (AID 651893); assay type: functional, cell-based; settings: Trypanosoma brucei
[19] = Inhibition of T. cruzi Tulahuen strain amastigotes in L-6 muscle cells Measured in Cell-Based and Microorganism Combination System Using Plate Reader - 2138-03_Inhibitor_Dose_CherryPick_Activity.; assay type: functional; settings: Rattus norvegicus, L6
[20] = biological target: Caspase-8 (Homo sapiens, UniProt Q14790); experiment: caspase-8 inhibition counter-screen, dose response, selectivity assay for caspase-6 inhibitor project, biochemical, Z-IETD-R110 fluorescence, cherry-picked samples (AID 743294)
[21] = biological target: T4, Sentrin-specific protease 8; assay type: functional; remark: listed apart in the source
[22] = biological target: T6, Caspase-9 (Homo sapiens, UniProt P55211); experiment: caspase-9 enzyme inhibition, dose response, selectivity assay for caspase-6 inhibitor project, biochemical, fluorescence, plate reader, cherry-picked samples (AID 743293)
T6 sequence (P55211 whole entry): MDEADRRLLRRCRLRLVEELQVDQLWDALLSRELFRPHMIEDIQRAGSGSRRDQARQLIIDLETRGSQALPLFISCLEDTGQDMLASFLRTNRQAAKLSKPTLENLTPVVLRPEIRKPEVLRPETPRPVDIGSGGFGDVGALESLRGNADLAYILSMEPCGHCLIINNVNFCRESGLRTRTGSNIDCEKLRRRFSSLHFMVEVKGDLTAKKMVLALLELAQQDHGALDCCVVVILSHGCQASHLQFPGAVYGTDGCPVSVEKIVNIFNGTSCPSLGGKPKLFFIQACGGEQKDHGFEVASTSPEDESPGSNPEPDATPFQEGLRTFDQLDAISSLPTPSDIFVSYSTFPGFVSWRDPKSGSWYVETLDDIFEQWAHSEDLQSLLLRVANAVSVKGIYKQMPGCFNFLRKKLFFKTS

[23] = biological target: T4, Sentrin-specific protease 8; assay type: functional; remark: listed apart in the source
[24] = biological target: Caspase-7 (Homo sapiens, UniProt P55210); experiment: human caspase-7 inhibitors, dose response, selectivity assay for caspase-6 inhibitor project, biochemical, DEVD-R110 fluorescence, cherry-pick (AID 743295)
[25] = biological target: T2, Caspase-3; experiment: Dose-response confirmation of uHTS inhibitor hits of Sentrin-Specific Protease 8 in a Caspase-3 Fluorescence assay.; assay type: functional
[26] = biological target: T2, Caspase-3; experiment: caspase-3 enzyme inhibitors, selectivity check, dose response, selectivity assay for caspase-6 allosteric inhibitor project, biochemical, fluorescence, cherry-picked samples (AID 743291)
[27] = biological target: T7, Caspase-6 (Homo sapiens, UniProt P55212); experiment: human caspase-6 inhibitors, dose response, biochemical, VEID-R110 fluorescence, cherry-pick (AID 720632)
T7 sequence (P55212 whole entry): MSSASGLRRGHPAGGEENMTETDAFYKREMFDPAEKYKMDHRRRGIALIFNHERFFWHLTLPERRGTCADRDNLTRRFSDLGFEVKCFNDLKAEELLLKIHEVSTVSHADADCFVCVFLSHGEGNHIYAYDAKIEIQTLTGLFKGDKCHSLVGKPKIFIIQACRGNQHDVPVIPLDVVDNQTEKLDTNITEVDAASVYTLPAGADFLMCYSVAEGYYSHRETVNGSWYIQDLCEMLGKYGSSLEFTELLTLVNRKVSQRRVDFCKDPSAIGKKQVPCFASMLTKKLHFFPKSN

[28] = LMP1-driven NF-kB reporter inhibition, dose response, cell-based, luciferase reporter, luminescence, dry powder, set 2 (AID 624376); assay type: functional
[29] = T. cruzi growth inhibition in host cells, dose response, cell-based, plate reader, dry powder, set 2 (AID 652275); assay type: functional

T1 sequence (Q79MP6 whole entry): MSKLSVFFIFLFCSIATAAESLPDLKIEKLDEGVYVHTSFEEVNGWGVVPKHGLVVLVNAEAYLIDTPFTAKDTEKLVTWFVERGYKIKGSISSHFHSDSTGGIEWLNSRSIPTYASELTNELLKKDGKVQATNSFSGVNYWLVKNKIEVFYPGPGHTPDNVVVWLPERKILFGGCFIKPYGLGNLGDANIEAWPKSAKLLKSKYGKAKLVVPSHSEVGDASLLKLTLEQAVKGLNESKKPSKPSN
Sequence of Botulinum neurotoxin type F (P30996 1-436 limits assumed): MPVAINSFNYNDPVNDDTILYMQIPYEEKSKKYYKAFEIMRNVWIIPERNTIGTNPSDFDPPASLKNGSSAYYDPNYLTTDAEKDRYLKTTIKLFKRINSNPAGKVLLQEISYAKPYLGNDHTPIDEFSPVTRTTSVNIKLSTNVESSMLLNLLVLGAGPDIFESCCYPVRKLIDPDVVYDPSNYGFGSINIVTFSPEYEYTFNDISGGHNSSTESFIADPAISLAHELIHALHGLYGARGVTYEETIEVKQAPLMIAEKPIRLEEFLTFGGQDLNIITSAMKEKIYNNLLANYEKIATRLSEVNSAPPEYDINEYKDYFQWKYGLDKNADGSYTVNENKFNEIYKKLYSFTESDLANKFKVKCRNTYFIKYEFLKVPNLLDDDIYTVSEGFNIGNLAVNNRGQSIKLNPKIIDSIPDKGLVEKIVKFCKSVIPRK
Sequence of Nonstructural protein 1 (Q194T2 whole entry): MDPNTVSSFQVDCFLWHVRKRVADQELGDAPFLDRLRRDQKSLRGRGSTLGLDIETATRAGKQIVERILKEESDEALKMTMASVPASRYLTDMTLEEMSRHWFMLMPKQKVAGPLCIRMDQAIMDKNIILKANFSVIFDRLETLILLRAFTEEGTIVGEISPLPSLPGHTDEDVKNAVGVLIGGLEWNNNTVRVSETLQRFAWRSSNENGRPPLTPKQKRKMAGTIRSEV
Sequence of Caspase-8 (Q14790 217-374 limits assumed): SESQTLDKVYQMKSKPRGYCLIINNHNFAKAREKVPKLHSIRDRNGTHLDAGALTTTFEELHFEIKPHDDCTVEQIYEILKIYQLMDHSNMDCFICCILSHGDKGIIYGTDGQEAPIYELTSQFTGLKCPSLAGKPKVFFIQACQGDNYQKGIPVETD
Sequence of Caspase-8 (Q14790 385-479 limits assumed): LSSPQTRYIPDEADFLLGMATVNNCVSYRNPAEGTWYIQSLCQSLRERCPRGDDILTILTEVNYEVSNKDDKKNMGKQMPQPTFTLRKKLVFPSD
Sequence of Albumin (P02769 whole entry): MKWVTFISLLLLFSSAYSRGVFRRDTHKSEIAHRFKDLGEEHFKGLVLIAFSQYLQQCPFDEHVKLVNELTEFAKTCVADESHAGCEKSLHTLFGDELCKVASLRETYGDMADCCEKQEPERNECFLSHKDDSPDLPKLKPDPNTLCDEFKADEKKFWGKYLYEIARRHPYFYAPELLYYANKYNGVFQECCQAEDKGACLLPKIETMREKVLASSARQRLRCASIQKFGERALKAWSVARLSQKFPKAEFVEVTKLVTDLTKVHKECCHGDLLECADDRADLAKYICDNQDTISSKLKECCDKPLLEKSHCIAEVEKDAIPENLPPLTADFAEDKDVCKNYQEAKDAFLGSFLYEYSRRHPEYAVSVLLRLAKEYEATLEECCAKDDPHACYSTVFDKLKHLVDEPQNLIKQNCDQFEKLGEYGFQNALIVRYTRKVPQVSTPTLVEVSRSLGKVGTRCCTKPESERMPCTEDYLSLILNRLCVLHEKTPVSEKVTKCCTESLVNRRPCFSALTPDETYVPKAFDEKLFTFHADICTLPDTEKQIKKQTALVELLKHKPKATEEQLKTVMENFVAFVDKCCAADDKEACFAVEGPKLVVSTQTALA
Sequence of Caspase-7 (P55210 24-198 limits assumed): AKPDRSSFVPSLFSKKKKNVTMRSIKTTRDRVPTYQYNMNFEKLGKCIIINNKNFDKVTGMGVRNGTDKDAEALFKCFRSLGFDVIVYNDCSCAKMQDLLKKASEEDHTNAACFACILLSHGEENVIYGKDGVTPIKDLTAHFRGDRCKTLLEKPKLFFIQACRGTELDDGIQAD
Sequence of Caspase-7 (P55210 207-303 limits assumed): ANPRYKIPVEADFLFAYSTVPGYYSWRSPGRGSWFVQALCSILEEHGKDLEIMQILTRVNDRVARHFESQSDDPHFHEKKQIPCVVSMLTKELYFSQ
Sequence of Beta-lactamase (Salmonella choleraesuis (strain SC-B67), UniProt Q5J463) (Q5J463 whole entry): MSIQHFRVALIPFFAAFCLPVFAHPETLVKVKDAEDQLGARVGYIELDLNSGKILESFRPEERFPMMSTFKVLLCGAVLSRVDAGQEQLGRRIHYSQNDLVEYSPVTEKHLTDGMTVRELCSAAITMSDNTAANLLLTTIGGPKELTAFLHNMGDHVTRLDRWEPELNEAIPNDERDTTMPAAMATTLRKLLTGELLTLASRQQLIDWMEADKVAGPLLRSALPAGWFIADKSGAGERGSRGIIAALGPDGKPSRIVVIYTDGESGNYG

O=C(NC(=S)NNC(=O)c1ccccc1O)c1cccnc1
IC50 [1]: 7.11 µM (active)
IC50 [2]: > 94.1 µM (inactive)

O=C(O)c1[nH]c2ccc(Br)cc2c1CCN1C(=O)c2cccc([N+](=O)[O-])c2C1=O
IC50 [3]: > 59.6 µM (inactive)
IC50 [4]: > 59.6 µM (inactive)
IC50 [5]: > 59.6 µM (inactive)
AC50 [6]: 23.1 µM (active)

CCc1cccc2c(C(=O)COC(=O)c3ccccc3)c[nH]c12
IC50 [7]: 49.9 µM (active)
EC50 [8]: > 20 µM (inactive)
IC50 [9]: 4.08 µM (active)
IC50 [10]: > 100 µM (inactive)
IC50 [11]: > 100 µM (inactive)

C[C@@H]1CN([C@@H](C)CO)C(=O)c2cccc(NC(=O)c3ccncc3)c2O[C@H]1CN(C)Cc1ccc(-c2ccccc2)cc1
IC50 [12]: 13.3 µM (inactive)
IC50 [13]: 1.2 µM (active)
IC50 [14]: 13.5 µM (active)
AC50 [15]: 0.08 µM (active)
IC50 [16]: 0.146 µM (active)
AC50 [17]: 21.9 µM (active)
IC50 [18]: 0.729 µM (active)
IC50 [19]: 1.2 µM (active)

CC[C@H](CO)Oc1cc(NCc2cccc(N)c2)c2ncn(C(C)C)c2c1
AC50 [20]: 31.8 µM (active)
IC50 [21]: 1.65 µM (active)
AC50 [22]: 46.5 µM (active)
IC50 [23]: 1.87 µM (active)
AC50 [24]: 4.66 µM (active)
IC50 [25]: 8.35 µM (active)
AC50 [26]: 3.87 µM (active)
AC50 [27]: 1.58 µM (active)

C[C@@H](NC(=O)C[C@H]1C=C[C@@H](NC(=O)Cc2ccccn2)[C@H](CO)O1)c1ccccc1
AbsAC35 [28]: 52.1 µM

C[C@H]1CN([C@@H](C)CO)C(=O)c2cccc(NC(=O)c3ccncc3)c2O[C@@H]1CN(C)Cc1ccccc1Cl
AC50 [29]: 0.165 µM (active)
